Results: patent publication US20250041281A1, “METHOD OF TREATING BILIARY TRACT CANCER” (J-PHARMA CO., LTD., priority 2023, published 2025)
Several values for one entry are separate records, joined by “and”; a condition that tells them apart may be missing. Identical values can stand only once. Entries after “also recorded” stand apart in the source; their conditions may differ.

Legend:
[1] = tested on: advanced biliary tract cancer refractory or intolerant to standard chemotherapy; test: Phase II randomized placebo-controlled trial, efficacy (PFS by BICR, OS, DCR); type: in vivo, human; set-up: disease control rate (DCR: CR+PR+SD) / Share of disease control patients with high LAT1 expression / Share of disease control patients with low LAT1 expression: concentration or dose not given beside the values
Protocol: (§1) As Phase II trial of Nanvuranlat, a multicenter, randomized, placebo-controlled, double-blind, parallel-group Phase II trial was conducted at 14 centers in Japan for patients with advanced biliary tract cancer who were refractory or intolerant of standard treatment. Patients were randomized in a 2:1 ratio to receive the drug or placebo using biliary tract cancer (BTC) subtype and resection status as allocation factors. The non-rapid (Slow and/or Intermediate) genotype was set as the NAT2 genotype for selection criteria, and based on the results of the PI study conducted earlier, 25 mg/m2 of Nanvuranlat or placebo was administered intravenously for 5 consecutive days and rested for 9 days (14 days: 1 cycle). Administration of the trial drug was continued until the discontinuation criteria were met. The primary endpoint was progression-free survival using RECIST 1.1 based on Blinded Independent Central Review. Images were obtained every 6 weeks from the start date and at discontinuation. PFS was defined as the date of the first documented progressive disease (PD) or death for any reason after randomization. The primary evaluation was conducted in the full analysis set (FAS) population, which consisted of all biliary tract cancer patients randomized to one of the arms. The safety evaluation was conducted in the SAFETY population, which was randomly assigned to one of the arms and received the trial drug. Nanvuranlat was used as monohydrochloride monohydrate.
Kaplan-Meier estimates corresponding to the event time points are calculated and plotted for each treatment group. Confidence intervals for the Kaplan-Meier estimates are constructed using the log-log method with standard errors approximated by the greenwood formula. Point estimates at the 25%, 50%, and 75% of survival time and 95% confidence intervals are obtained and presented in tabular form. The Brookmeyer and Crowley method is used to construct the confidence intervals for survival time percentiles.
Fitting to a stratified Cox proportional hazards model, the hazard ratio exp((β_drug)Λ) and its 95% confidence interval are estimated and presented in tabular and forest plot form, along with the p-value of the Wald test corresponding to the null hypothesis “β_drug=0; exp(β_drug)=1”.
Stratification factor 1: “Facility,” “Gall bladder cancer and other cancers,” and “Existence or nonexistence of primary tumor resection history” Stratification factor 2: “Biliary tract cancer subtype (intrahepatic biliary tract cancer, extrahepatic biliary tract cancer, […], or duodenal papillary carcinoma)” and “Existence or nonexistence of primary tumor resection history”
This test was a multicenter, randomized, double-blind, placebo-controlled, Phase II trial conducted at 14 major cancer centers/hospitals in Japan. Patients were randomly assigned to the Nanvuranlat or placebo group (2:1), stratified by BTC subtype and whether the primary cancer lesion had been resected, generated by an independent statistical group. Randomization to the two treatment groups was performed by IWRS (Interactive Web-based Response System) and generated by an independent statistical group.
Nanvuranlat 25 mg/m^2/day or placebo was administered intravenously for 5 consecutive days, followed by a 9-day rest period (=14 days: 1 cycle). The trial drug was administered by 90-minute infusion at the investigator's site (all patients were admitted during the first treatment cycle). Patients, drug administrators, and clinical trial coordinators were blinded to trial treatment. Nanvuranlat was used as monohydrochloride monohydrate.
Treatment with additional cycles was to continue until disease progression, the occurrence of other unacceptable toxicities, pregnancy confirmation, death, withdrawal of consent, loss to follow-up, unblinding of the trial, or termination of the trial, as determined by the investigator. […]

[2] = Phase II randomized placebo-controlled trial, safety (adverse events); type: in vivo
Protocol: as §1, with “The non-rapid (Slow and/or Intermediate) genotype was set as the NAT2 genotype for selection criteria, and based on the results of the PI study conducted earlier, 25 mg/m2 of Nanvuranlat or placebo was administered intravenously for 5 consecutive days and rested for 9 days (14 days: 1 cycle).” left out
The trial drug was administered by 90-minute infusion at the investigator's site (all patients were admitted during the first treatment cycle). Patients, drug administrators, and clinical trial coordinators were blinded to trial treatment. Nanvuranlat was used as monohydrochloride monohydrate.
Secondary endpoint was overall survival (OS), disease control rate (DCR) as assessed by BICR, and safety. […] Blood and urinary concentrations of Nanvuranlat and its metabolite N-acetyl-JPH203 (NAc-JPH203) were evaluated.
The primary efficacy analysis was performed using a full analysis set (FAS) population that included all randomly assigned BTC patients within their designated treatment group. The safety analysis population included all patients who received at least one trial treatment (safety population).
Statistics were used to summarize safety data, response rates, pharmacokinetic and pharmacodynamic data. Unless otherwise specified, all reported p-values are one-sided. Statistical analysis was performed using SAS software (version 9.4).

[3] = cited from earlier work

SMILES: Nc1cc(COc2c(Cl)cc(C[C@H](N)C(=O)O)cc2Cl)c2oc(-c3ccccc3)nc2c1 [Nanvuranlat, O-(5-amino-2-phenylbenzoxazol-7-yl)methyl-3,5-dichloro-L-tyrosine]
- PFS hazard ratio (HR) by BICR vs placebo ([1]; FAS all patients n=104, 25 mg/m2 iv 5 days, 9 days rest): 0.557
- Median PFS ([1]; FAS, Nanvuranlat group n=69): 46.0 days
- progression-free survival rate at 1.5 months ([1]; FAS, Nanvuranlat group n=69): 53.6% and 62.3%
- progression-free survival rate at 3 months ([1]; FAS, Nanvuranlat group n=69): 14.5% and 23.2%
- Overall survival HR vs placebo, LAT1 high-expressing subgroup with IHC ([1]; IHC, LAT1 high): 0.35
- Number of patients with controlled diseases, LAT1 score 0 ([1]; LAT1 score 0): 1
- Number of patients with controlled diseases, LAT1 score 1 ([1]; LAT1 score 1): 2
- Number of patients with controlled diseases, LAT1 score 2 ([1]; LAT1 score 2): 0
- Number of patients with controlled diseases, LAT1 score 3 ([1]; LAT1 score 3): 0
- Number of patients with controlled diseases, LAT1 score 4 ([1]; LAT1 score 4): 2
- PFS HR by BICR vs placebo, LAT1 high expression subgroup ([1]; LAT1 score 4-9, n=65): 0.439
- Number of patients with controlled diseases, LAT1 score 6 ([1]; LAT1 score 6): 4
- Number of patients with controlled diseases, LAT1 score 9 ([1]; LAT1 score 9): 5
- Number of disease control patients with high LAT1 ([1]; Nanvuranlat group, LAT1 high): 11
- Number of patients with controlled diseases ([1]; Nanvuranlat group, total): 17
- disease control rate (DCR: CR+PR+SD) ([1]; by BICR, Nanvuranlat group): 24.6%
- PFS HR vs placebo, subgroup EHC ([1]; extrahepatic biliary tract cancer, 95% CI in brackets): 0.150 (0.0437-0.5153)
- Overall survival HR vs placebo ([1]; full population of FAS): 0.849
- PFS HR vs placebo, subgroup GBC ([1]; gall bladder cancer, 95% CI in brackets): 0.287 (0.1009-0.8183)
- PFS HR vs placebo, subgroup IHC ([1]; intrahepatic biliary tract cancer, 95% CI in brackets): 0.872 (0.4359-1.7458)
- Share of disease control patients with high LAT1 expression ([1]; of 17 disease control patients): 64.7%
- Share of disease control patients with low LAT1 expression ([1]; of 17 disease control patients): 17.6%
- Overall survival HR vs placebo, high LAT1 ([1]; only patients with high LAT1): 0.670
- PFS HR vs placebo, EHC and GBC integrated ([1]; patients with GBC/EHC): 0.218
- Grade 3 or higher treatment-related adverse events ([2]; fatigue, decreased platelet count, hypertension): three
- Abdominal discomfort, All grades ([2]; n = 70): 2 (2.9%) n (%)
- At least one adverse event, All grades ([2]; n = 70): 60 (85.7%) n (%)
- At least one adverse event, ≥ Grade 3 ([2]; n = 70): 21 (30.0%) n (%)
- Blood creatinine elevation, All grades ([2]; n = 70): 1 (1.4%) n (%)
- Cancer pain, All grades ([2]; n = 70): 6 (8.6%) n (%)
- Cancer pain, ≥ Grade 3 ([2]; n = 70): 1 (1.4%) n (%)
- Cholangitis, All grades ([2]; n = 70): 10 (14.3%) n (%)
- Cholangitis, ≥ Grade 3 ([2]; n = 70): 9 (12.9%) n (%)
- Constipation, All grades ([2]; n = 70): 10 (14.3%) n (%)
- Diarrhea, All grades ([2]; n = 70): 8 (11.4%) n (%)
- Diarrhea, ≥ Grade 3 ([2]; n = 70): 1 (1.4%) n (%)
- Fatigue, All grades ([2]; n = 70): 1 (1.4%) n (%)
- Fever, All grades ([2]; n = 70): 9 (12.9%) n (%)
- High blood pressure, All grades ([2]; n = 70): 5 (7.1%) n (%)
- High blood pressure, ≥ Grade 3 ([2]; n = 70): 2 (2.9%) n (%)
- Hypophagia, All grades ([2]; n = 70): 16 (22.9%) n (%)
- Insomnia, All grades ([2]; n = 70): 8 (11.4%) n (%)
- Malaise, All grades ([2]; n = 70): 11 (15.7%) n (%)
- Malaise, ≥ Grade 3 ([2]; n = 70): 1 (1.4%) n (%)
- Nasopharyngitis, All grades ([2]; n = 70): 1 (1.4%) n (%)
- Nausea, All grades ([2]; n = 70): 9 (12.9%) n (%)
- Pruritus, All grades ([2]; n = 70): 5 (7.1%) n (%)
- Rash, All grades ([2]; n = 70): 2 (2.9%) n (%)
- Stomatitis, All grades ([2]; n = 70): 4 (5.7%) n (%)
- Tumor pain, All grades ([2]; n = 70): 1 (1.4%) n (%)
- Vomiting, All grades ([2]; n = 70): 5 (7.1%) n (%)
- adverse events of Grade 3 or higher ([2]; safety population n=70): 30.0%
- frequency of all adverse events ([2]; safety population n=70): 85.7%
- serious adverse events ([2]; safety population n=70): 21.4%
- treatment-related adverse events ([2]; safety population n=70): 41.4%
- discontinuations or dose reductions ([2]; trial observation period): no discontinuations or dose reductions; also recorded: Neither discontinuations nor dose reductions were considered as treatment related
- treatment-related deaths ([2]; trial observation period): no deaths suspected to be related to Nanvuranlat; also recorded: No treatment-related deaths; also recorded: no deaths or discontinuations linked to treatment
- maximum tolerated dose ([3]; 17 patients with solid tumors): 60 mg/m^2
- Grade 3 hepatic dysfunction, number of patients ([3]; only in patients with the Rapid form of NAT2): two
